These results are taken from BindingDB's records for doi:10.1021/acschembio.7b00062 (Philipps-Universität Marburg, 2017).

Broadly, the Kd is the concentration at which binding is half-saturated. Read a low Kd as tighter binding.

The target in the assay is Aldo-keto reductase family 1 member B1 (Homo sapiens, UniProt P15121). Description: SPR Assay. To be noted: pH 8.5. How it is done: The anti-His antibody (His Capture Kit, GE Healthcare) was immobilized on sensor chip CM5 (GE Healthcare), in a Biacore T200 or Biacore S200 instrument, to ∼10000 resonance units (RU) using a standard amine coupling procedure (Amine Coupling Kit, GE Healthcare). His-tagged aldose reductase (ALR2), at a concentration of 100 μg/mL, was captured on the anti-His antibody using dual injection consisting of a 3 min injection of protein followed by a 100 s activation with a mixture (1:1) of 0.2 M N-ethyl-N-(dimethylamino)propylcarbodiimide (EDC) and 50 mM N-hydroxysuccinimide (NHS), and final blocking with an injection of 1.0 Methanolamine (pH 8.5) for 100 s. […] For the interaction analysis, the compound concentrations ranged from 3 to 10000 nM with a 5-fold dilution step, using a single-cycle kinetic approach with three or five concentrations or injections per cycle.
The compound `O=C(O)COc1cc(Cl)ccc1C(=O)NCc1cccc([N+](=O)[O-])c1` [2-(5-chloro-2-{[(3-nitrophenyl)methyl]carbamoyl}phenoxy)acetic acid] came in with a dissociation constant (Kd) of 14 nM. This counts as double-digit nanomolar.

`NC(=O)[C@@H]1C[C@]2(NC(=O)NC2=O)c2cc(F)ccc2O1` [(2S,4S)-6-fluoro-2,5-dioxo-2,3-dihydrospiro[chromene-4,4-imidazolidine]-2-carboxamide] displayed a Kd of 16 nM.

For the compound `O=C(O)COc1cc(F)ccc1C(=O)Nc1cccc([N+](=O)[O-])c1` [ALR2 inhibitor, 8], the affinity, expressed as Kd, was 23 nM. The Kd values of the last two compounds are within 1.5-fold of each other.

The compound `O=C(O)COc1ccc(-c2ccccc2)cc1C(=O)NCc1cccc([N+](=O)[O-])c1` [ALR2 inhibitor, 11] yielded a Kd of 15 nM.
